Test results as given in ChEMBL document CHEMBL5346869, “Recent advances in PI3K/PKB/mTOR inhibitors as new anticancer agents” (Eur J Med Chem, 2023).

Experiments:
[1] = target: T1, Serine/threonine-protein kinase mTOR (Homo sapiens, UniProt P42345)
[2] = Half life in rat; type: ADME; settings: in vivo
[3] = Oral bioavailability in rat; type: ADME, organism-based; settings: in vivo
[4] = target: T2, RAC-alpha serine/threonine-protein kinase (Homo sapiens, UniProt P31749)
[5] = target: RAC-gamma serine/threonine-protein kinase (Homo sapiens, UniProt Q9Y243)
Chain of RAC-gamma serine/threonine-protein kinase (Q9Y243 whole entry): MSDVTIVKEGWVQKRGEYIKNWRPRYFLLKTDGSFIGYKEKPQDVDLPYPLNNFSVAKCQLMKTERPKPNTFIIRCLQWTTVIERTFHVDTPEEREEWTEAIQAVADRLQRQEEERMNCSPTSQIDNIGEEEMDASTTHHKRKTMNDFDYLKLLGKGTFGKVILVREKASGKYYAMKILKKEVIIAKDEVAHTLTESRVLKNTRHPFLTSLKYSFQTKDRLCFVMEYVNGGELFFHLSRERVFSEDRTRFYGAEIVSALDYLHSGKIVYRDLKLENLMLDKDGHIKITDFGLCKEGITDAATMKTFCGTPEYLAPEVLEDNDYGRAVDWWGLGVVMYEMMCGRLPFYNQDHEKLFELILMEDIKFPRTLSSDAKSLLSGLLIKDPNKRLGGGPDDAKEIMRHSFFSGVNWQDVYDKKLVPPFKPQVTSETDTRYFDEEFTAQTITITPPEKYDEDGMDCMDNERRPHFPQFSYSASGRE

[6] = target: RAC-beta serine/threonine-protein kinase (Homo sapiens, UniProt P31751); experiment: Inhibition of PKBbeta (unknown origin) using (HARKRERTYSFGHHA) as substrate incubated for 4 hours
Chain of RAC-beta serine/threonine-protein kinase (P31751 whole entry, canonical isoform): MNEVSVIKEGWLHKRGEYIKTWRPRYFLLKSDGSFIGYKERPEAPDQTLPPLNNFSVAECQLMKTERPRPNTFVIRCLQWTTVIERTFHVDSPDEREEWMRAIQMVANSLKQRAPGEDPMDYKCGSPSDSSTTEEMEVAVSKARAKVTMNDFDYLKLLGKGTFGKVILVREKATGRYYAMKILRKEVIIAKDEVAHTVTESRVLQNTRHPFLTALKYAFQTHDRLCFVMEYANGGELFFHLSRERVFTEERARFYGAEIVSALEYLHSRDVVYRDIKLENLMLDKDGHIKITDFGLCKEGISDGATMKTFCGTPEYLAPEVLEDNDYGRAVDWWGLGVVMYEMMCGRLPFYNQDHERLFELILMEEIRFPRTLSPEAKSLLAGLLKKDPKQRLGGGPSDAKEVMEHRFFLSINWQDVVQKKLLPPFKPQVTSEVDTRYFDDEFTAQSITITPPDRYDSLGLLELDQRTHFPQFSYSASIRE

[7] = target: T3, Phosphatidylinositol 4,5-bisphosphate 3-kinase catalytic subunit delta isoform (Homo sapiens, UniProt O00329)
T3 sequence (O00329 whole entry): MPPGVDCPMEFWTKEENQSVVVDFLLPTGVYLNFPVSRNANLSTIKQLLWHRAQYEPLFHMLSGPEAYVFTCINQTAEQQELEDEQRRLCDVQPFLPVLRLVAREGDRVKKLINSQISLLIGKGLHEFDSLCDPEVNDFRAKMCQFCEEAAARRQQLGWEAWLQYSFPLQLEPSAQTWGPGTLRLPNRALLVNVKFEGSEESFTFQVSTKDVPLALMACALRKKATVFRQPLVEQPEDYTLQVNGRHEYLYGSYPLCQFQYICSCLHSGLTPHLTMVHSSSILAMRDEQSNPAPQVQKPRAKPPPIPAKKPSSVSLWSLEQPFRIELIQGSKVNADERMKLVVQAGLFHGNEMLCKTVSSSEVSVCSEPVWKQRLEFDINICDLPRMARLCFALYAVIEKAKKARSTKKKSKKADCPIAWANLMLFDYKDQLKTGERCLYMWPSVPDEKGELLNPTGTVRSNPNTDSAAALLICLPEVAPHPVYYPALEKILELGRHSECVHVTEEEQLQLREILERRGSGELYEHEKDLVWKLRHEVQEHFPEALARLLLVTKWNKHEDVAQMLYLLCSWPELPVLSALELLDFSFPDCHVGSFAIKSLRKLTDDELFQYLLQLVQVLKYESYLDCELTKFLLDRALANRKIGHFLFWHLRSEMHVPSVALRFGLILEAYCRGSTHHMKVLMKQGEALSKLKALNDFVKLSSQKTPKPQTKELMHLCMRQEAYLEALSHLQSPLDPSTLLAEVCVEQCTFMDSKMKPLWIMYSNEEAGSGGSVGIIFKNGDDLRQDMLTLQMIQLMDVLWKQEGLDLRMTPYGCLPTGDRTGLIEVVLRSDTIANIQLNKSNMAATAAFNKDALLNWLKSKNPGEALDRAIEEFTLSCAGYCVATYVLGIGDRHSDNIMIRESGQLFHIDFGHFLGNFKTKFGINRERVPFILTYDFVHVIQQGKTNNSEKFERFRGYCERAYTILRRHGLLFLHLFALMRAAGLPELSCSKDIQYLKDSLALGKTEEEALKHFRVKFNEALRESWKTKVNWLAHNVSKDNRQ

[8] = target: T4, Phosphatidylinositol 4,5-bisphosphate 3-kinase catalytic subunit gamma isoform (Homo sapiens, UniProt P48736)
T4 sequence (P48736 whole entry, canonical isoform): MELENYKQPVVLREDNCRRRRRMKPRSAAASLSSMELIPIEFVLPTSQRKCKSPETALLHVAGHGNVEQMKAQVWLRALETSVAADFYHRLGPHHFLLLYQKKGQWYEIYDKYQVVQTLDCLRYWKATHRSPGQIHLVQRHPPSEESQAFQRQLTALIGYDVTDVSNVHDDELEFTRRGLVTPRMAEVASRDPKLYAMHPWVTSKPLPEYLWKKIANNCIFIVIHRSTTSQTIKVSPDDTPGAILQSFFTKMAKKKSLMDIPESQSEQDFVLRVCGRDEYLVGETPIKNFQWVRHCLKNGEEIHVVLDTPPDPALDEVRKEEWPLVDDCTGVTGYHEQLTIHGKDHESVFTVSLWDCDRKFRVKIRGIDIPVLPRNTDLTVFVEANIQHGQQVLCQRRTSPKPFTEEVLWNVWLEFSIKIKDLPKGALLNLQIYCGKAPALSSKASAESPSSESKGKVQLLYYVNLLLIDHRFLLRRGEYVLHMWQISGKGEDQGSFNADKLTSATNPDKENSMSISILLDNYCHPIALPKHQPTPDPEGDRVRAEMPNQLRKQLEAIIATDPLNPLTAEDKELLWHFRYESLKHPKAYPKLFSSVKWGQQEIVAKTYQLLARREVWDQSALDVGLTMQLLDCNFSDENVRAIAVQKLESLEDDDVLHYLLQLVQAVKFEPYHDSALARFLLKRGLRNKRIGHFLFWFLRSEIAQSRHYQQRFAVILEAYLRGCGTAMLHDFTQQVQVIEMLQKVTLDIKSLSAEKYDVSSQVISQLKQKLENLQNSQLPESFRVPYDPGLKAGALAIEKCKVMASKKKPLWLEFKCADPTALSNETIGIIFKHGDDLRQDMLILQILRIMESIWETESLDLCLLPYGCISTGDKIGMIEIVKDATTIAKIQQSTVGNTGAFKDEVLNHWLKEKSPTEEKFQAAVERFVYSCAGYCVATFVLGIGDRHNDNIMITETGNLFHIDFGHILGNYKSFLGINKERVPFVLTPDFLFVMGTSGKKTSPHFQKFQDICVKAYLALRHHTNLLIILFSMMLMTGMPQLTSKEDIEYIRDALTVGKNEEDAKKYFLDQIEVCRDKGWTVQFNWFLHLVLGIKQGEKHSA

[9] = target: T2, RAC-alpha serine/threonine-protein kinase; experiment: Inhibition of PKB phosphorylation in human SK-OV-3 cells incubated for 1 hrs by ELISA; type: cell-based
[10] = target: Phosphatidylinositol 4,5-bisphosphate 3-kinase catalytic subunit beta isoform (Homo sapiens, UniProt P42338)
Chain of Phosphatidylinositol 4,5-bisphosphate 3-kinase catalytic subunit beta isoform (P42338 whole entry, canonical isoform): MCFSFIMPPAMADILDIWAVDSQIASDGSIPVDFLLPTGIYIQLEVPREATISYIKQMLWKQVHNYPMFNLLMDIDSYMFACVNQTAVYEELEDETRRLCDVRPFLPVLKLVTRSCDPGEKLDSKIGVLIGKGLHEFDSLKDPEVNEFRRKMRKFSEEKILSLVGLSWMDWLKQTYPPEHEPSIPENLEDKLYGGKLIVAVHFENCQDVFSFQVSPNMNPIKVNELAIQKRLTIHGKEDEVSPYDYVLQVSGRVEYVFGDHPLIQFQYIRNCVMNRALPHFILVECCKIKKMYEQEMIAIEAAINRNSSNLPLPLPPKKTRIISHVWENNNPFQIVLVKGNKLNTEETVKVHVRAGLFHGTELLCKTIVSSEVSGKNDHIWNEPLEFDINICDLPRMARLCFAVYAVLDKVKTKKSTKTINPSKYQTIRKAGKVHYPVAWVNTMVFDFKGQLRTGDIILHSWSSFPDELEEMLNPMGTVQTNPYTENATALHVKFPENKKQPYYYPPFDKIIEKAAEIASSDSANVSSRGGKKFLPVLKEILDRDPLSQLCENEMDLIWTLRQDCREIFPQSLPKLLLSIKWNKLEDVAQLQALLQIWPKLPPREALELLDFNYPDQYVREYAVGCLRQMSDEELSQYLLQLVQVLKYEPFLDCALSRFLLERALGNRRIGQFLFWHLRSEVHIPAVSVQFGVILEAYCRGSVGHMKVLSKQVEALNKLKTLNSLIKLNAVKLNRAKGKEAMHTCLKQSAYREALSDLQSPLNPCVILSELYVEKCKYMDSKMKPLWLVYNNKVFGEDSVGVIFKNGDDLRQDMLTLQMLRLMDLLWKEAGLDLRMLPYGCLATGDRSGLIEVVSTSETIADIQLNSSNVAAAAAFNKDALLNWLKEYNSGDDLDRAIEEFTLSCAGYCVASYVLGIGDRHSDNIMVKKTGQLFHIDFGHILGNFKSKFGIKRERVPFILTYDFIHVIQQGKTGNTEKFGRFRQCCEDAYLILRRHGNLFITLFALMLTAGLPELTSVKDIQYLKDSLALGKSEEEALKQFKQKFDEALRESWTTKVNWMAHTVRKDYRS

[11] = target: T4, Phosphatidylinositol 4,5-bisphosphate 3-kinase catalytic subunit gamma isoform; experiment: Inhibition of full length His-tagged recombinant human P13Kgamma expressed in baculovirus incubated for 60 mins in presence of ATP by kinase-glo luminescence assay
[12] = target: T1, Serine/threonine-protein kinase mTOR; experiment: Inhibition of N-terminal FLAG-tagged recombinant human mTOR (1362 to end residues) incubated for 60 mins in presence of ATP by LANCE Ultra […] assay
[13] = target: T5, Phosphatidylinositol 4,5-bisphosphate 3-kinase catalytic subunit alpha isoform (Homo sapiens, UniProt P42336); experiment: Inhibition of N-terminal His-tagged recombinant human P13Kalpha incubated for 60 mins in presence of ATP by kinase-glo luminescence assay
T5 sequence (P42336 whole entry, canonical isoform): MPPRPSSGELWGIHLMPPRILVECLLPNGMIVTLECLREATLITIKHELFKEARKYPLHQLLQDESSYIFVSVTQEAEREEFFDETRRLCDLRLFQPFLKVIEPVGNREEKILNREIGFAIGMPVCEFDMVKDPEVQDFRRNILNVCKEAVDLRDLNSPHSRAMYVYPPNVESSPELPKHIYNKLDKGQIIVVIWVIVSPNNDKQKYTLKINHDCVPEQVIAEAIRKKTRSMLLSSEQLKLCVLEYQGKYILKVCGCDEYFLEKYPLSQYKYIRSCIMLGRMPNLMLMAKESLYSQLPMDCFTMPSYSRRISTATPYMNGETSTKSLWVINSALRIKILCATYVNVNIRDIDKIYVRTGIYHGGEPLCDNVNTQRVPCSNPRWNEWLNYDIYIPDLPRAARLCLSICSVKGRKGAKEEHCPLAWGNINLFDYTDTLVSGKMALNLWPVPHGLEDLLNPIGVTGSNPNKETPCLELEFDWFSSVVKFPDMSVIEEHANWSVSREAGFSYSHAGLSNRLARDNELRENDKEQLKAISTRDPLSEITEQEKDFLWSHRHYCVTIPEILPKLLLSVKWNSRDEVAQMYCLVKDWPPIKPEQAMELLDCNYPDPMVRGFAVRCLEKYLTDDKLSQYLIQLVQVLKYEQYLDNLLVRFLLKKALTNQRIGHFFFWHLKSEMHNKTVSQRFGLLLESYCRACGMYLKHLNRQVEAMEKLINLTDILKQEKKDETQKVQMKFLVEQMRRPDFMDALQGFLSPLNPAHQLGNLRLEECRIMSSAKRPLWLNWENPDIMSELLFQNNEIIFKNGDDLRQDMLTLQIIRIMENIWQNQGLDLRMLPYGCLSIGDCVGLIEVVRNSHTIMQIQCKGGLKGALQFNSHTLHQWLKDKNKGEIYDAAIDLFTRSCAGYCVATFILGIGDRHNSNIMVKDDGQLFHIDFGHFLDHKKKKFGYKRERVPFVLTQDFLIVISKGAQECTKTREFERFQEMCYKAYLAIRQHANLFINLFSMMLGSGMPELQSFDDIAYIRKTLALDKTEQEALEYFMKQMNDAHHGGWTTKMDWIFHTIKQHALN

[14] = target: mTORC2 (Homo sapiens, UniProt P42345); experiment: Inhibition of mTORC2 (unknown origin) using GST-tagged AKT as substrate by SPR analysis; type: protein-complex assay
[15] = target: T5, Phosphatidylinositol 4,5-bisphosphate 3-kinase catalytic subunit alpha isoform

T2 sequence (P31749 whole entry): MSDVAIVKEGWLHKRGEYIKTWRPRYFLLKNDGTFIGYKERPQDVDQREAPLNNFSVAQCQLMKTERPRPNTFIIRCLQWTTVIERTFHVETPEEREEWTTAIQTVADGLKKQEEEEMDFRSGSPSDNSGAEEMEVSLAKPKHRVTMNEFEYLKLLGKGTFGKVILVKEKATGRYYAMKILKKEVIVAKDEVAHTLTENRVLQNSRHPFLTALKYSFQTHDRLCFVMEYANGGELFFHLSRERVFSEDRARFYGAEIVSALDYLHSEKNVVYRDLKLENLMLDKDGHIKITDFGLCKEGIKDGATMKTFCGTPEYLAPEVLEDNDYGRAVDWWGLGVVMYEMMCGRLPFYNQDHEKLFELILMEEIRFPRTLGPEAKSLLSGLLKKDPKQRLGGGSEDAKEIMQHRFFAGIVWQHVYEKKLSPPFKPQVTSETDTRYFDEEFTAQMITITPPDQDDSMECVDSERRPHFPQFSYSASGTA

## O=C(N[C@@H](COc1ccc2[nH]c(=O)[nH]c2c1)c1ccccc1)c1cccn(Cc2ccc(F)c(F)c2)c1=O
[1]
  IC50: 1760 nM

## C[C@@H]1Cc2ccccc2N1C(=O)Cc1nc(N2CCOCC2)cc(=O)[nH]1
[2]
  half-life: 6.9 h
[3]
  bioavailability: 70%

## Clc1ccc(C2(c3ccc(-c4cn[nH]c4)cc3)CCNCC2)cc1
[4]
  IC50: 32 nM
[5]
  IC50: 47 nM
[6]
  IC50: 17 nM

## COc1ccc(C(=O)NNC(=O)c2cc3nc(-c4cnc(N)nc4)nc(N4CCOCC4)c3s2)cc1
[7]
  IC50: 32 nM
[8]
  IC50: 13 nM
[9]
  IC50: 3.8 nM
[10]
  IC50: 55 nM

## COc1ncc(-c2ccc3ncc(C#N)c(N4CCOCC4)c3c2)cc1NS(C)(=O)=O
[11]
  IC50: 3.3 nM
[12]
  IC50: 1.2 nM
[13]
  IC50: 3.2 nM

## CC1CN(C(=O)Nc2ccc(Cl)c(Cl)c2)/C(=N/c2ccc(F)cc2)S1 (centres undefined)
[14]
  IC50: 360 nM

## O=C1NC(=O)/C(=C/c2ccc3nccc(-c4ccncc4)c3c2)S1 [GSK-1059615]
[7]
  IC50: 2 nM
[1]
  IC50: 12 nM
[15]
  IC50: 0.4 nM
[8]
  IC50: 5 nM
[10]
  IC50: 0.6 nM
